In BindingDB's records for PubMed 11082457 (Centre De Recherches De Croissy, 2000) one finds Ki data, which are given here for 2 molecules.

As a reminder, the Ki is a dissociation constant, usually derived from enzyme kinetics or from competition with a known ligand. Read a high Ki as a looser hold on the target.

Assay [1] addresses T1, Amine oxidase [flavin-containing] A (Rattus norvegicus, UniProt P21396).
T1 sequence (P21396 whole entry): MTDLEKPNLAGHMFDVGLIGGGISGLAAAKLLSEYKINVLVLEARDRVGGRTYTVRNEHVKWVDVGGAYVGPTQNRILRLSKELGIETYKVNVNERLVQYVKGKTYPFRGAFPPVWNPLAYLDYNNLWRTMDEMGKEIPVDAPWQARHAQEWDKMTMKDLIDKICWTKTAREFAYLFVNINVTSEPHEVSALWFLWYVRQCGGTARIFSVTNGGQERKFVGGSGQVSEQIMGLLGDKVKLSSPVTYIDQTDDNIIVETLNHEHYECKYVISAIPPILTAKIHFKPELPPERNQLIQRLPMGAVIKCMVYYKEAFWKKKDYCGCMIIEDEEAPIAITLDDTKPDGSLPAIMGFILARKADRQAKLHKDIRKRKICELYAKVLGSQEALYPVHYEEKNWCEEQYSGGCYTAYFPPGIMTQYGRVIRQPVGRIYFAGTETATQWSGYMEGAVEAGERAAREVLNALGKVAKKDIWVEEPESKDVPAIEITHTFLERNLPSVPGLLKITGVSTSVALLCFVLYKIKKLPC

The target of assay [2] is T2, Amine oxidase [flavin-containing] B (Rattus norvegicus, UniProt P19643).
T2 sequence (P19643 whole entry): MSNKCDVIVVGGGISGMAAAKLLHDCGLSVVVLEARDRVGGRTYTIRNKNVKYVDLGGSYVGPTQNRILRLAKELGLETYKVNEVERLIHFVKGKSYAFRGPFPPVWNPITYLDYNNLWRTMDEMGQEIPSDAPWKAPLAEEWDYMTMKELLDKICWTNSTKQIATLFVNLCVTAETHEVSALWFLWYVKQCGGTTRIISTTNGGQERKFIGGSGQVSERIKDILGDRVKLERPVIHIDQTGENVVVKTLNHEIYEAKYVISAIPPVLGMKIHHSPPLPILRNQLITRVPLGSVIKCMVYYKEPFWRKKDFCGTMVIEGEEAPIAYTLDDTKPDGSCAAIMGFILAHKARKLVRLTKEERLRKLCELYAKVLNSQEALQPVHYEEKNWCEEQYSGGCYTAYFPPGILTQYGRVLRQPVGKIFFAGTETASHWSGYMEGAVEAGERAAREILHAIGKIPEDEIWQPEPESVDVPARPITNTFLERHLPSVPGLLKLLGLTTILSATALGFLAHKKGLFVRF

Assay [3] addresses T3, Alpha-1A adrenergic receptor (Homo sapiens, UniProt P35348).
T3 sequence (P35348 whole entry): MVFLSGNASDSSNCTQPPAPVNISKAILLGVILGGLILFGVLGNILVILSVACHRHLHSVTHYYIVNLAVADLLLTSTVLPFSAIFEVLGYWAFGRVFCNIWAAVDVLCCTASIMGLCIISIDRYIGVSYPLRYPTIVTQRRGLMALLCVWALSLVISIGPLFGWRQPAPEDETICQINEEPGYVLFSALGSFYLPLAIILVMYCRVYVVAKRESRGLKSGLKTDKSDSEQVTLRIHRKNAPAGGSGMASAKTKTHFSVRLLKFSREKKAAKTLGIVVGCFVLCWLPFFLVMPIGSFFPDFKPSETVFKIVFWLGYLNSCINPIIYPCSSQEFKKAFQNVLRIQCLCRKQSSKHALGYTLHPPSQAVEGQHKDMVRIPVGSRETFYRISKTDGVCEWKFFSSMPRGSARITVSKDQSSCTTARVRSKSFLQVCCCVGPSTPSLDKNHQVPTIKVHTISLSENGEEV

Assay [4] deals with T4, Alpha-1D adrenergic receptor (Homo sapiens, UniProt P25100).
T4 sequence (P25100 whole entry): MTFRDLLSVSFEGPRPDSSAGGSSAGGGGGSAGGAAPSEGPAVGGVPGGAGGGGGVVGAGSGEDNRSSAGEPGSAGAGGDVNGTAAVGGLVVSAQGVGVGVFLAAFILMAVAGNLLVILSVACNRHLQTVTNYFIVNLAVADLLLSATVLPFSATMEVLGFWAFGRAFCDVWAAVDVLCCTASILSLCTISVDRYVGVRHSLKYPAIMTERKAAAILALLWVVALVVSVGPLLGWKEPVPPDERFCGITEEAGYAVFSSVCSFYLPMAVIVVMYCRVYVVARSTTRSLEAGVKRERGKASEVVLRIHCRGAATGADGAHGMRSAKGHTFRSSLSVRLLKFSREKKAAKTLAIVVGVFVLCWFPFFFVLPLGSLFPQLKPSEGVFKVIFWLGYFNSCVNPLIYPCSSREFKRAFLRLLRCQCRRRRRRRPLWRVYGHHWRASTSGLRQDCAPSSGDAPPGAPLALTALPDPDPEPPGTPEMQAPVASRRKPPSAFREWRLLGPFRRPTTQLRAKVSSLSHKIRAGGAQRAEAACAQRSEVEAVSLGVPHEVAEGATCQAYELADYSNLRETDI

In assay [5] the target is T5, Alpha-2C adrenergic receptor (Rattus norvegicus, UniProt P22086).
T5 sequence (P22086 whole entry): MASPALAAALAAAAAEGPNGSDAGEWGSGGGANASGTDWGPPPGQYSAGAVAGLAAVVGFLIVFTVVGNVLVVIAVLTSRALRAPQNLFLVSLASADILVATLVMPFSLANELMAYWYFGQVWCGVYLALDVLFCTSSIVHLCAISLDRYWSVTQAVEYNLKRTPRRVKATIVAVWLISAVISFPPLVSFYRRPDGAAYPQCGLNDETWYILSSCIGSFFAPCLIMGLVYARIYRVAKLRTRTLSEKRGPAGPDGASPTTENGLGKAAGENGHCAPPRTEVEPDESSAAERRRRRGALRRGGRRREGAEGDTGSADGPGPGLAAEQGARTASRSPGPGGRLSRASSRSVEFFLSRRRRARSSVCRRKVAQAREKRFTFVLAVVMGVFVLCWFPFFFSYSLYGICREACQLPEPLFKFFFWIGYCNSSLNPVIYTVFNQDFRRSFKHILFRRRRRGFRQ

Turning to `Cc1cccc([C@@H](C)c2cnc[nH]2)c1C`, the Ki is 1000 nM in assay [1]; 1000 nM in assay [2]; 200 nM in assay [3]; 79.4 nM in assay [4]; 1 nM in assay [5].

In the case of `NC1=NC2(CCc3ccccc3C2)CO1` (stereo not given) [S18616], the Ki in assay [1] was determined as 1000 nM; in assay [2], 1000 nM; in assay [3], 3.98 nM; in assay [4], 25.1 nM; in assay [5], 0.159 nM.
